For one experiment, the system named is CIRAR. Briefly: Example V: postemergence herbicidal activity of mixtures in forage crops, CIRAR. The format is in vivo, Cirsium arvense (Canada thistle). The following applies: alone, foliar, approximately 21 days. The procedure:
(§1) Seeds or root cuttings of the desired test plant species were planted in Sun Gro MetroMix® 306 planting mixture, which typically has a pH of 6.0 to 6.8 and an organic matter content of about 30 percent, in plastic pots with a surface area of 126.6 square centimeters (cm^2). […] The plants were grown for 14-60 days in a greenhouse with an approximate 14 hour photoperiod which was maintained at approximately 28° C. during the day and 24° C. during the night.
(§2) Spray solutions of the second herbicide or experimental compound mixtures were prepared by adding the stock solutions to the appropriate amount of dilution solution to form 12 mL spray solution with active ingredients in two-way combinations.

The next experiment has as its system SOOSS. Nature of the experiment: Example V: postemergence herbicidal activity of mixtures in forage crops, SOOSS. To be noted: alone, foliar, approximately 21 days. Format: in vivo, Solidago L. spec. (goldenrod). The procedure: as §1, §2
Another experiment has as its system SCPMA. Briefly: Example II: in-water applied herbicidal mixtures, transplanted paddy rice, SCPMA. The format is in vivo. The following applies: 22 DAA. The procedure: (§3) The prepared mud was dispensed in 365 mL aliquots into 16-ounce (oz.) non-perforated plastic pots with a surface area of 86.59 square centimeters (cm^2) leaving a headspace of 3 centimeters (cm) in each pot Mud was allowed to dry overnight prior to planting or transplanting. Rice seeds were planted in Sun Gro MetroMix® 306 planting mixture, which typically has a pH of 6.0 to 6.8 and an organic matter content of about 30 percent, in plastic plug trays. Seedlings at the second or third leaf stage of growth were transplanted into 840 mL of mud contained in 32-oz. non-perforated plastic pots with a surface area of 86.59 cm^2 4 days prior to herbicide application. […] Nutrients were added as Osmocote® (19:6:12, N:P:K^+ minor nutrients) at 2 g per 16-oz. pot and 4 g per 32-oz. pot.
(§4) Applications were made by injecting with a pipetter appropriate amounts of the application solutions, individually and sequentially, into the aqueous layer of the paddy. Control plants were treated in the same manner with the solvent blank. Applications were made so that all treated plant material received the same concentrations of acetone and crop oil concentrate.

The subject of another experiment is CASOB. Nature of the experiment: Example V: postemergence herbicidal activity of mixtures in forage crops (greenhouse), CASOB. To be noted: alone, 50 gae/ha, foliar, approximately 21 days. Format: in vivo, Cassia obtusifolia (sicklepod). The procedure:
as §1, §2

The test system of another experiment is SONAR. Briefly: Example V: postemergence herbicidal activity of mixtures in forage crops, SONAR. Format: in vivo, Sonchus arvensis (field sowthistle). To be noted: alone, foliar, approximately 21 days. The procedure: as §1, §2
The subject of the next experiment is DIGSA. Briefly: Example I: postemergence foliar-applied herbicidal mixtures, direct seeded rice, DIGSA.
The next experiment has as its system CENMA. Nature of the experiment: Example V: postemergence herbicidal activity of mixtures in forage crops, CENMA. The format is in vivo, Centaurea maculosa (spotted knapweed). To be noted: alone, foliar, approximately 21 days. The procedure: as §1, §2
In experiment [1] the test system is ECHCG. Briefly: Example I: postemergence foliar-applied herbicidal mixtures, direct seeded rice, ECHCG.
Method: (§7) The soil matrix was contained in plastic pots with a volume of 1 quart and a surface area of 83.6 square centimeters (cm^2). […] The plants were grown for 8-22 days in a greenhouse with an approximate 14 h photoperiod which was maintained at about 29° C. during the day and 26° C. during the night. Nutrients (Peters Excel® 15-5-15 5-Ca 2-Mg and iron chelate) were applied in the irrigation solution as needed and water was added on a regular basis. Supplemental lighting was provided with overhead metal halide 1000-Watt lamps as necessary. The plants were employed for testing when they reached the first through fourth true leaf stage.
(§8) Treatments consisted of the acid or esters of 4-amino-3-chloro-5-fluoro-6-(4-chloro-2-fluoro-3-methoxy-phenyl)pyridine-2-carboxylic acid (Compound A), each formulated as an SC (suspension concentrate), and various herbicidal components alone and in combination. Forms of compound A were applied on an acid equivalent basis.
(§9) For treatments comprised of formulated compounds, measured amounts of compounds were placed individually in 25 mL glass vials and diluted in a volume of 1.25% (v/v) Agri-Dex® crop oil concentrated to obtain 12× stock solutions. […] Application solutions were prepared by adding an appropriate amount of each stock solution (e.g., 1 mL) and diluted to the appropriate final concentrations with the addition of 10 mL of an aqueous mixture of 1.25% (v/v) crop oil concentrate so that the final spray solutions contained 1.25+/−0.05% (v/v) crop oil concentrate.
(§10) All stock solutions and applications solutions were visually inspected for compound compatibility prior to application. Spray solutions were applied to the plant material with an overhead Mandel track sprayer equipped with a 8002E nozzles calibrated to deliver 187 L/ha over an application area of 0.503 m^2 at a spray height of 18 to 20 inches (46 to 50 cm) above average plant canopy height. Control plants were sprayed in the same manner with the solvent blank.
(§11) The treated plants and control plants were placed in a greenhouse as described above and watered by sub-irrigation to prevent wash-off of the test compounds. After approximately 3 weeks, the condition of the test plants as compared with that of the untreated plants was determined visually and scored on a scale of 0 to 100 percent where 0 corresponds to no injury or growth inhibition and 100 corresponds to complete kill.
(§12) Colby's equation was used to determine the herbicidal effects expected from the mixtures (Colby, S. R. 1967. Calculation of the synergistic and antagonistic response of herbicide combinations. Weeds 15:20-22).
(§13) The following equation was used to calculate the expected activity of mixtures containing two active ingredients, A and B: Expected=A+B−(A×B/100)
(§14) A=observed efficacy of active ingredient A at the same concentration as used in the mixture.
(§15) B=observed efficacy of active ingredient B at the same concentration as used in the mixture.
The next experiment relates to CYPRO. Nature of the experiment: Example II: in-water applied herbicidal mixtures, weed control in transplanted paddy rice (greenhouse), CYPRO. Format: in vivo, Cyperus rotundus (purple nutsedge). To be noted: 22 DAA. The procedure: as §3, §4
The next experiment has as its system ECHOR. Briefly: Example II: in-water applied herbicidal mixtures, transplanted paddy rice, ECHOR. To be noted: Echinochloa oryzoides; for pest or weed control at 70 g/ha: 70 gae/ha; for pest or weed control at 140 g/ha: 140 gae/ha. Format: in vivo, Echinochloa oryzoides (early watergrass). The procedure:
as §3, §4

The test system of experiment [2] is ECHCG. Nature of the experiment: Example II: in-water applied herbicidal mixtures, transplanted paddy rice, ECHCG. Format: in vivo, Echinochloa crus-galli (barnyardgrass). The procedure:
as §3, §4

The next experiment deals with ECHCO. Briefly: Example I: postemergence foliar-applied herbicidal mixtures, direct seeded rice, ECHCO.
The subject of another experiment is AMARE. Nature of the experiment: Example IV: postemergence foliar-applied herbicidal mixtures, weed control in cereal crops in the greenhouse, AMARE. The format is in vivo, Amaranthus retroflexus (redroot pigweed). The following applies: alone, 20-22 days. The procedure: (§5) Seeds of the desired test plant species were planted in Sun Gro MetroMix 306 planting mixture, which typically has a pH of 6.0 to 6.8 and an organic matter content of about 30 percent, in plastic pots with a surface area of 103.2 square centimeters (cm^2). […] The plants were grown for 7-36 days in a greenhouse with an approximate 14 hour photoperiod which was maintained at about 18° C. during the day and 17° C. during the night.
(§6) Spray solutions of the second cereal herbicide and experimental compound mixtures were prepared by adding the stock solutions to the appropriate amount of dilution solution to form 12 mL spray solution with active ingredients in two- and three-way combinations.

In the next experiment the test system is BRSNN. Nature of the experiment: Example IV: postemergence foliar-applied herbicidal mixtures, cereal crops, BRSNN. The format is in vivo, Brassica napus (volunteer canola). The following applies: alone, 35 gai/ha, foliar, 20-22 days. The procedure: as §5, §6
Another experiment deals with POLCO. Nature of the experiment: Example IV: postemergence foliar-applied herbicidal mixtures, cereal crops, POLCO. The following applies: alone, 35 gai/ha, foliar, 20-22 days. The format is in vivo, Polygonum convolvulus (wild buckwheat). The procedure: as §5, §6
Experiment [3] relates to LEFCH. Briefly: Example I: postemergence foliar-applied herbicidal mixtures, direct seeded rice, LEFCH. The format is in vivo, Leptochloa chinensis (Chinese sprangletop). The following applies: 280 gae/ha.
Method: as §7, §8, §9, §10, §11, §12, §13, §14, §15
Experiment [4] deals with LEFCH. Briefly: Example II: in-water applied herbicidal mixtures, transplanted paddy rice, LEFCH. Format: in vivo, Leptochloa chinensis (Chinese sprangletop). To be noted: 25 DAA; 70 gae/ha. The procedure:
as §3, §4

The test system of another experiment is CYPDI. Briefly: Example I: postemergence foliar-applied herbicidal mixtures, direct seeded rice, CYPDI. Format: in vivo, Cyperus difformis (smallflower umbrella sedge).
In the next experiment the test system is SCPJU. Briefly: Example II: in-water applied herbicidal mixtures, transplanted paddy rice, SCPJU. Format: in vivo, Schoenoplectus juncoides (Japanese bulrush). To be noted: 25 DAA. The procedure:
as §3, §4

Another experiment deals with SINAR. Briefly: Example V: postemergence herbicidal activity of mixtures in forage crops, SINAR. The format is in vivo, Sinapis arvensis (wild mustard). To be noted: alone, foliar, approximately 21 days. The procedure:
as §1, §2

The next experiment deals with TRFRE. Briefly: Example V: postemergence herbicidal activity of mixtures in forage crops, TRFRE. The format is in vivo, Trifolium repens (white clover). To be noted: alone, foliar, approximately 21 days. The procedure: as §1, §2
Setting [5] is: 528 h, 22 DAA, read-out: Visual Weed Control (%) Obs.
Where [6] appears, read: 70 gae/ha (Compound A Benzyl Ester rate not given).
[7] abbreviates: 140 gae/ha (Compound A Benzyl Ester rate not given).
Setting [8] is: 456 h, read-out: Visual Weed Control (%) Obs, 19 DAA.
Where [9] appears, read: 600 h, read-out: Visual Weed Control (%) Obs, 25 DAA.

Where a name gives a salt, the structure may show the parent alone. Read-outs that look alike come from different tables or passages of the source.

Method for CYPDI: as §7, §8, §9, §10, §11, §12
The following equation was used to calculate the expected activity of mixtures containing two active ingredients, A and B: Expected=A+B−(A×B/100) […]
Method for ECHCO: as §7, §8, §9, §10, §11, §12, §13, §14, §15

For `O=C(O)c1nc(Cl)ccc1Cl` [Clopyralid MEA salt, 3,6-dichloro-2-pyridinecarboxylic acid with 2-aminoethanol, reference compound], in the experiment on CIRAR (35 gae/ha), the “CIRAR Obs (observed value)” value stood at 75%. For the same compound, in the experiment on SOOSS (35 gae/ha), the “SOOSS Obs (observed value)” value was found to be 25%.

Take `CCCCOCCOC(=O)COc1nc(Cl)c(Cl)cc1Cl` [Triclopyr Butotyl Ester, 2-butoxyethyl 2-[(3,5,6-trichloro-2-pyridinyl)oxy]acetate, reference compound]: the “Visual Weed Control (%) Obs” value is 50% with SCPMA (70 gae/ha); 60% with SCPMA (140 gae/ha); 0% in the experiment with CYPRO (70 gae/ha); 40% in the experiment on CYPRO (140 gae/ha); 0% in the experiment on ECHCG [2] (22 DAA, 70 gae/ha); 0% in the experiment on ECHCG [2] (22 DAA, 140 gae/ha). In addition, the “CASOB Obs (observed value)” value in the experiment with CASOB amounted to 18%. The “SONAR Obs (observed value)” value in the experiment on SONAR (35 gae/ha) and in the experiment on SONAR (70 gae/ha) was 60% throughout. Further, the “CIRAR Obs (observed value)” value with CIRAR (70 gae/ha) is 40%. The “Visual Weed Control (%) - 23 DAA DIGSA Obs” value in the experiment on DIGSA (35 gae/ha), in the experiment on DIGSA (70 gae/ha) and with DIGSA (140 gae/ha) was 0% each time. For the same compound, the “CENMA Obs (observed value)” value in the experiment on CENMA (35 gae/ha) was determined as 30%; in the experiment with CENMA (70 gae/ha), 45%. Besides, the “Visual Weed Control (%) - 23 DAA ECHCG Obs” value in the experiment on ECHCG [1] (35 gae/ha) is 0%; with ECHCG [1] (70 gae/ha), 0%; in the experiment with ECHCG [1] (140 gae/ha), 15%. Also, the pest or weed control at 70 g/ha in the experiment on ECHOR (setting [5]) came out at 0%. The pest or weed control at 140 g/ha in the experiment on ECHOR (setting [5]) worked out at 0%. For the same compound, the “Visual Weed Control (%) - 23 DAA ECHCO Obs” value in the experiment with ECHCO (70 gae/ha) and in the experiment on ECHCO (140 gae/ha) was 0% in each case.

On to `COc1c(Cl)ccc(Cl)c1C(=O)O` [Dicamba, 3,6-dichloro-2-methoxybenzoic acid], for which, in the experiment with AMARE (35 gai/ha), the “AMARE Ob (observed value)” value amounted to 53%. Also, the “BRSNN Ob (observed value)” value in the experiment on BRSNN is 8%. In addition, in the experiment on POLCO, the “POLCO Ob (observed value)” value turned out to be 13%.

As for `CCCCCCC(C)OC(=O)COc1nc(F)c(Cl)c(N)c1Cl` (stereo not drawn) [Fluroxypyr MHE, 1-methylheptyl 2-[(4-amino-3,5-dichloro-6-fluoro-2-pyridinyl)oxy]acetate, reference compound], the “Visual Weed Control (%) Obs” value with SCPMA (149 gae/ha) was determined as 30%; in the experiment on LEFCH [4] it was 20%; in the experiment with ECHCG [2] (19 DAA, 70 gae/ha), 0%; with ECHCG [2] (19 DAA, 140 gae/ha), 0%; with ECHCG [2] (19 DAA, 280 gae/ha), 0%; in the experiment on ECHCG [2] (25 DAA, 140 gae/ha) it was 0%. Further, the “Visual Weed Control (%) Obs” value was found to be 20% with SCPJU (70 gae/ha) and 30% with SCPJU (140 gae/ha). In the experiment with LEFCH [3], the “Visual Weed Control (%) - 19 DAA LEFCH Obs” value was determined as 28%. The “Visual Injury (%) Obs” value with LEFCH [4] turned out to be 20%. Moreover, the “Visual Weed Control (%) - 21 DAA ECHCG Obs” value with ECHCG [1] (70 gae/ha), in the experiment on ECHCG [1] (setting [6]), in the experiment on ECHCG [1] (140 gae/ha) and in the experiment with ECHCG [1] (setting [7]) was 0% throughout. Moreover, the “Visual Weed Control (%) - 19 DAA ECHCG Obs” value in the experiment on ECHCG [1] (280 gae/ha) is 25%. Also, the pest or weed control at 70 g/ha with ECHOR (setting [8]) and in the experiment on ECHOR (setting [9]) was 0% throughout. Moreover, the pest or weed control at 140 g/ha in the experiment on ECHOR (setting [8]) and in the experiment on ECHOR (setting [9]) was 0% each time. The “Visual Weed Control (%) - 21 DAA ECHCO Obs” value in the experiment with ECHCO (70 gae/ha), in the experiment with ECHCO (setting [6]), with ECHCO (140 gae/ha) and in the experiment with ECHCO (setting [7]) was 0% throughout. Also, the “Visual Weed Control (%) - 21 DAA CYPDI Obs” value with CYPDI (70 gae/ha) was found to be 15%; with CYPDI (140 gae/ha) it was 80%.

For the compound `O=C(O)c1nc(Cl)ccc1Cl` [Clopyralid, 3,6-dichloro-2-pyridinecarboxylic acid], the “AMARE Ob (observed value)” value in the experiment on AMARE (50 gai/ha) is listed as 17%.

Take `Nc1cc(Cl)nc(C(=O)O)c1Cl` [Aminopyralid TIPA salt, 4-amino-3,6-dichloropyridine-2-carboxylic acid compound with 1,1′,1″-nitrilotris[2-propanol], reference compound]: the “CIRAR Obs (observed value)” value with CIRAR (17.5 gae/ha) was 45%. Also, in the experiment with SOOSS (17.5 gae/ha), the “SOOSS Obs (observed value)” value came out at 45%. Further, the “SINAR Obs (observed value)” value in the experiment on SINAR (17.5 gae/ha) is 25%; with SINAR (35 gae/ha), 45%. In the experiment with TRFRE (17.5 gae/ha), the “TRFRE Obs (observed value)” value is 35%.

Take `CCCCCCC(C)OC(=O)COc1nc(F)c(Cl)c(N)c1Cl` (stereo not drawn) [Fluroxypyr ME]: the “SONAR Obs (observed value)” value is given as 0% in the experiment on SONAR (35 gae/ha) and 15% in the experiment with SONAR (70 gae/ha). The “CIRAR Obs (observed value)” value with CIRAR (70 gae/ha) came to 10%. Besides, the “CENMA Obs (observed value)” value in the experiment with CENMA (35 gae/ha) and with CENMA (70 gae/ha) was 0% each time. In the experiment on SOOSS (70 gae/ha), the “SOOSS Obs (observed value)” value is 50%. In addition, the “TRFRE Obs (observed value)” value with TRFRE (35 gae/ha) was 15%; in the experiment on TRFRE (70 gae/ha), 20%.

For the origin of these results see patent US8912120B2, “Herbicidal compositions comprising 4-amino-3-chloro-5-fluoro-6-(4-chloro-2-fluoro-3-methoxyphenyl) pyridine-2-carboxylic acid or a derivative thereof and synthetic auxin herbicides” (Dow AgroSciences, LLC., priority 2012, dated 2014).
